The structures appear in SMILES notation. ≈ marks a conversion by molar mass, not a printed value.

In series [1] the test system is S. aureus ATCC 29213 (MSSA). Kind of series: Antibacterial MIC, broth microdilution (EUCAST). It is filed as cell-based, Staphylococcus aureus. The following applies: for MIC: Staphylococcus aureus. As to the method: (§1) Minimum inhibitory concentrations (MICs) of compounds was determined by the broth microdilution assay in 96-well plates (Eppendorf, Hamburg, Germany) according to the EUCAST rules for antimicrobial susceptibility testing in full Mueller-Hinton broth (MH). The concentrations of compounds to be tested ranged from 1 to 2048 µg/mL. The MIC was determined as the lowest concentration of an antibiotic for which no visible bacterial growth could be observed after 24 h of incubation.
Background: Dilution methods test growth across graded concentrations, often in twofold steps.

Series [2] has as its system S. aureus MRSA clinical isolate. Kind of series: Antibacterial MIC, broth microdilution (EUCAST). In kind it is cell-based, Staphylococcus aureus. The following applies: for MIC: Staphylococcus aureus, MRSA, 24 h, Mueller-Hinton broth. As to the method:
as §1

A further series has as its system P. aeruginosa ATCC 27853. Put plainly: Antibacterial MIC, broth microdilution (EUCAST). It is filed as cell-based, Pseudomonas aeruginosa. The following applies: for MIC: Pseudomonas aeruginosa, ATCC27853, 24 h, Mueller-Hinton broth. As to the method:
as §1

Series [3] deals with influenza virus A/Puerto Rico/8/34 (H1N1). Put plainly: Antiviral cell protection assay in MDCK cells. It is filed as cell-based. The following applies: H1N1, MDCK, 72 h.
A short description of a further series: in vitro. Conditions: dog.
Series [4] in a line: Cytotoxicity, MTT on EBL cells. Conditions: bovine, EBL cells (embryonic bovine lung).
Protocol: (§2) Cytotoxicity of compounds was determined using the microtetrazolium test (MTT) on EBL cells. The cells were cultured in DMEM—Dulbecco’s Modified Eagle’s Medium (Sigma Aldrich, St. Louis, MO, USA) supplemented with 10% FBS, 2 mM L-glutamine, 100 µg/mL penicillin and 100 µg/mL streptomycin. Cells were seeded in 96-well plates with the density of 3000 cells per well and left overnight to allow for the attachment. Cells were next cultured at 37 °C and 5% CO2 in the presence of compounds of interest at various concentrations from 1.25 to 160 µg/mL. After 24 h of cultivation the cells were subjected to MTT-assay. The formazan was solubilized by DMSO and the optical density was measured on Tecan Infinite 200Pro at 570 nm. The concentration required to inhibit cellular dehydrogenase activity by 50% (CC50 value) was calculated by using GraphPad Prism 6.0 software (GraphPad software, San Diego, CA, USA).
Series [5] deals with Candida albicans 703 clinical isolate. Kind of series: Antifungal MIC, broth microdilution (CLSI M27-A3). Conditions: for MIC: Candida albicans, 24 h, read-out: MIC C. albicans 703 Clinical Isolate.
For series [6], the system named is red blood cells from laboratory mice. Kind of series: Membrane-protective activity: H2O2-induced hemolysis of erythrocytes. It is filed as cell-based. Conditions: 1 μM, 1–5 h. As for the experimental part: The membrane-protective properties of the compounds were evaluated in the model of oxidative hemolysis of erythrocytes at a concentration of 1 μM in order to avoid the effect of hemolytic activity.
To evaluate the erythrotoxicity, antioxidant and membrane-protective activity of the compounds, we used 0.5% (v/v) suspension of red blood cells from laboratory mice in phosphate-buffered saline (PBS, pH 7.4). The test substances were previously dissolved in ethanol. Erythrotoxicity (hemolytic activity) was evaluated by the degree of hemolysis of red blood cells 1–5 h after the introduction of solutions of the compounds. Membrane-protective and antioxidant activity was determined by the degree of inhibition of H2O2-induced hemolysis. For this purpose, 30 min after the erythrocyte suspension was added to the solutions of the test compounds, hemolysis was initiated with a solution of hydrogen peroxide (0.006%). Then, the reaction mixture was incubated in a thermostatic shaker Biosan ES-20 with slow stirring at 37 °C for 5 h. An aliquot was taken from the incubation medium every hour, centrifuged for 5 min (1600× g), and the degree of hemolysis was determined by the hemoglobin content in the supernatant on a ThermoSpectromic Genesys 20 spectrophotometer (Thermo Fisher Scientific, Waltham, MA, USA) at 524 nm. The percentage of hemolysis was calculated in relation to the complete hemolysis of the sample. Each experiment was designed with 4–8 replicates. Statistical data processing and charting were performed using the Microsoft Office Excel 2007 software package (Microsoft, Redmond, WA, USA). The data represent the mean ± SE.
Figure 4 Effect of unsymmetrical disulfides and Trolox (T) at a concentration of 1 μM on the level of H2O2-induced hemolysis of erythrocytes after 1–5 h of incubation.

Series [7] deals with EBL cells (embryonic bovine lung). Kind of series: Cytotoxicity, MTT on EBL cells.
Protocol: as §2

Usually MIC stands for the lowest concentration that inhibits growth of the organism. In the case of `NCC[C@H](O)C(=O)N[C@@H]1C[C@H](N)[C@@H](O[C@H]2O[C@H](CN)[C@@H](O)[C@H](O)[C@H]2O)[C@H](O)[C@H]1O[C@H]1O[C@H](CO)[C@@H](O)[C@H](N)[C@H]1O` [Amikacin, reference compound], the minimum inhibitory concentration (MIC) is 4 µg/mL (≈ 6.83 µM) in [1] (24 h, Mueller-Hinton broth); 4 µg/mL (≈ 6.83 µM) in series [2]; 4 µg/mL (≈ 6.83 µM) with P. aeruginosa ATCC 27853.

For orientation: IC50 means the concentration needed to halve the response being measured. A low value points to higher potency. In general, melting point refers to the temperature of the solid-liquid transition. `COC(=O)c1cccnc1SS[C@H]1C[C@H](C)CC[C@H]1C(C)C` [Compound 1c, Methyl 2-(((1S,2S,5R)-2-isopropyl-5-methylcyclohexyl)disulfanyl)pyridine-3-carboxylate] gave a melting point of 96 °C. The compound also had an MIC in series [1] (24 h, Mueller-Hinton broth) of 32 µg/mL (≈ 94.2 µM). In series [2], this compound displayed an MIC of 32 µg/mL (≈ 94.2 µM). In the series with P. aeruginosa ATCC 27853, this compound registered an MIC of 32 µg/mL (≈ 94.2 µM). The compound also gave an IC50 in series [3] of 12 ± 2 µM. In “in vitro”, this compound had a CC50 of 31 ± 2 µM. Besides, the CC50 at 24 h in [4] was determined as 18.3 µg/mL (≈ 53.9 µM). For the same compound, the MIC in [5] came to 512 µg/mL (≈ 1510 µM).

`CC(C)[C@@H]1CC[C@@H](C)C[C@@H]1SSc1ncccc1C(=O)O` [Compound 1d, 2-(((1S,2S,5R)-2-isopropyl-5-methylcyclohexyl)disulfanyl)nicotinic acid]: the melting point is 160 to 161 °C (dec.). Moreover, it took 32 µg/mL (≈ 98.3 µM) to inhibit growth in series [1] (24 h, Mueller-Hinton broth) (MIC). It took 64 µg/mL (≈ 197 µM) to inhibit growth in series [2] (MIC). The compound also had a minimal inhibitory concentration (MIC) against P. aeruginosa ATCC 27853 of 1020 µg/mL (≈ 3150 µM). Moreover, in series [3], the IC50 is greater than 34 µM. In “in vitro”, the CC50 was found to be 38 ± 3 µM. For the same compound, the CC50 at 24 h in series [4] is 47.8 µg/mL (≈ 147 µM). Also, in [5], the MIC came to 64 µg/mL (≈ 197 µM).

In the case of `Cc1cc(C)nc(SSC[C@@H]2CC[C@H]3C[C@@H]2C3(C)C)n1` [Compound 2b, 2-((((1S,2R,5S)-6,6-dimethylbicyclo[3.1.1]heptan-2-yl)methyl)disulfanyl)-4,6-dimethylpyrimidine], the minimal inhibitory concentration (MIC) in series [1] (24 h, Mueller-Hinton broth) was 16 µg/mL (≈ 51.9 µM); in series [2] it was 64 µg/mL (≈ 207 µM); in the series on P. aeruginosa ATCC 27853, 32 µg/mL (≈ 104 µM); in series [5] it was greater than 1020 µg/mL. Besides, in the series on P. aeruginosa ATCC 27853, the “activity against P. aeruginosa ATCC 27853, in words” value is listed as “repressed the growth”. In addition, half-maximal inhibition in series [3] (IC50) was put at 13 ± 2 µM. Moreover, in series [6], the “membrane-protective activity, in words” value is on record as “most active”. This compound yielded a CC50 in “in vitro” of 35 ± 3 µM. Also, in [4], the CC50 at 24 h worked out at 13.6 µg/mL (≈ 44.1 µM).

Take `COC(=O)c1cccnc1SSC[C@@H]1CC[C@H]2C[C@@H]1C2(C)C` [Compound 2c, Methyl 2-((((1S,2R,5S)-6,6-dimethylbicyclo[3.1.1]heptan-2-yl)methyl)disulfaneyl)pyridine-3-carboxylate]: in series [1], the “antibacterial activity against MSSA, in words” value is “inactive”. In addition, the minimum inhibitory concentration (MIC) in series [1] (24 h, Mueller-Hinton broth) was greater than 1020 µg/mL; in [2], 64 µg/mL (≈ 190 µM); in the series with P. aeruginosa ATCC 27853, 1020 µg/mL (≈ 3030 µM); in series [5], 1020 µg/mL (≈ 3030 µM). For the same compound, the “antibacterial activity against MRSA, in words” value in [2] is recorded as “showing activity”. The 50% inhibitory concentration (IC50) in series [3] is 19 ± 3 µM. Moreover, in series [6], the “membrane-protective activity, in words” value is “most active”. In addition, the CC50 in the series “in vitro” was found to be 104 ± 8 µM. This compound showed a CC50 at 24 h in [4] of 123 µg/mL (≈ 363 µM). The “cytotoxicity on EBL cells, in words” value in [7] was “least toxicity”.

Regarding `CC1(C)[C@H]2CC[C@@H](CSSc3ncccc3C(=O)O)[C@@H]1C2` [Compound 2d, 2-((((1S,2R,5S)-6,6-dimethylbicyclo[3.1.1]heptan-2-yl)methyl)disulfanyl)nicotinic acid], in series [1] (24 h, Mueller-Hinton broth), the “MIC S. aureus ATCC 29213 (MSSA)” value was 32 µg/mL (≈ 98.9 µM). In addition, the minimum inhibitory concentration (MIC) was 16 µg/mL (≈ 49.5 µM) in series [1] (24 h, Mueller-Hinton broth); 512 µg/mL (≈ 1580 µM) in [2]; 1020 µg/mL (≈ 3170 µM) in the series with P. aeruginosa ATCC 27853; 128 µg/mL (≈ 396 µM) in series [5]. In addition, the 50% inhibitory concentration (IC50) in series [3] amounted to 5 ± 1 µM. Also, the CC50 in the series “in vitro” is 60 ± 4 µM. Besides, the CC50 at 24 h in [4] stood at 18.1 µg/mL (≈ 56 µM).

As for `CC1(C)[C@H]2C[C@H](SSc3nc4ccccc4s3)[C@@H](CO)[C@@H]1C2` [Compound 3a, ((1S,2R,3S,5R)-3-(benzo[d]thiazol-2-yldisulfanyl)-6,6-dimethylbicyclo[3.1.1]heptan-2-yl)methanol], the MIC in series [1] (24 h, Mueller-Hinton broth) was 32 µg/mL (≈ 91 µM); in series [2], 32 µg/mL (≈ 91 µM); with P. aeruginosa ATCC 27853, 64 µg/mL (≈ 182 µM); in series [5] it was 1020 µg/mL (≈ 2910 µM). Moreover, the “activity against P. aeruginosa ATCC 27853, in words” value with P. aeruginosa ATCC 27853 is recorded as “repressed the growth”. For the same compound, the concentration for half-maximal inhibition (IC50) in [3] was 9 ± 3 µM. In addition, the CC50 in the series “in vitro” turned out to be 30 ± 3 µM. The same compound registered a CC50 at 24 h in series [4] of 7.1 µg/mL (≈ 20.2 µM).

Consider `Cc1cc(C)nc(SS[C@H]2C[C@H]3C[C@@H]([C@@H]2CO)C3(C)C)n1` [Compound 3b, ((1S,2R,3S,5R)-3-((4,6-dimethylpyrimidin-2-yl)disulfanyl)-6,6-dimethylbicyclo[3.1.1]heptan-2-yl)methanol], for which the minimum inhibitory concentration (MIC) amounted to 32 µg/mL (≈ 98.6 µM) in series [1] (24 h, Mueller-Hinton broth); 32 µg/mL (≈ 98.6 µM) in series [2]; 1020 µg/mL (≈ 3160 µM) against P. aeruginosa ATCC 27853; 512 µg/mL (≈ 1580 µM) in series [5]. Also, the IC50 in series [3] stood at 16 ± 3 µM. Moreover, in [6], the “membrane-protective activity, in words” value is given as “most active”. The compound also had a CC50 in “in vitro” of 83 ± 4 µM. Moreover, the CC50 at 24 h in series [4] turned out to be 8.2 µg/mL (≈ 25.3 µM).

For the compound `CC1(C)[C@H]2C[C@H](O)[C@@H](CSSc3nc4ccccc4s3)[C@@H]1C2` [Compound 4a, (1S,2S,3S,5R)-2-((benzo[d]thiazol-2-yldisulfanyl)methyl)-6,6-dimethylbicyclo[3.1.1]heptan-3-ol], the MIC was 256 µg/mL (≈ 728 µM) in series [1] (24 h, Mueller-Hinton broth); greater than 1020 µg/mL in series [2]; 1020 µg/mL (≈ 2910 µM) against P. aeruginosa ATCC 27853; greater than 1020 µg/mL in series [5]. In [3], this compound gave a half-inhibitory concentration (IC50) greater than 31 µM. Besides, the “membrane-protective activity, in words” value in series [6] is listed as “most active”. Further, in the series “in vitro”, the CC50 was 68 ± 6 µM.

With `Cc1cc(C)nc(SSC[C@@H]2[C@@H](O)C[C@H]3C[C@@H]2C3(C)C)n1` [Compound 4b, (1S,2S,3S,5R)-2-(((4,6-dimethylpyrimidin-2-yl)disulfanyl)methyl)-6,6-dimethylbicyclo[3.1.1]heptan-3-ol], the minimum inhibitory concentration (MIC) was greater than 1020 µg/mL in series [1] (24 h, Mueller-Hinton broth); greater than 1020 µg/mL in series [2]; greater than 1020 µg/mL against P. aeruginosa ATCC 27853; greater than 1020 µg/mL in series [5]. Further, in [3], the IC50 amounted to 12 ± 3 µM. In addition, the “membrane-protective activity, in words” value in series [6] is given as “most active”. The compound also returned a CC50 in “in vitro” of 34 ± 2 µM.

Consider `CC1(C)[C@H]2C[C@H](O)[C@@H](CSSc3ncccc3C(=O)O)[C@@H]1C2` [Compound 4d, 2-((((1S,2S,3S,5R)-3-hydroxy-6,6-dimethylbicyclo[3.1.1]heptan-2-yl)methyl)disulfanyl)nicotinic acid], for which the MIC stood at 512 µg/mL (≈ 1510 µM) in [1] (24 h, Mueller-Hinton broth); 64 µg/mL (≈ 189 µM) in series [2]; 1020 µg/mL (≈ 3020 µM) with P. aeruginosa ATCC 27853; 16 µg/mL (≈ 47.1 µM) in series [5]. In addition, the IC50 in series [3] was greater than 97 µM. In series [6], the “membrane-protective activity, in words” value is “most active”. In “in vitro”, the CC50 is 178 ± 11 µM. Further, the CC50 at 24 h in [4] was determined as 11.1 µg/mL (≈ 32.8 µM). Besides, in series [5], the “antifungal activity against Candida albicans 703, in words” value is reported as “active against yeast”.

For `OC(Cn1cncn1)(Cn1cncn1)c1ccc(F)cc1F` [Fluconazole, reference compound], the minimal inhibitory concentration (MIC) in series [5] is 16 µg/mL (≈ 52.2 µM).

As for `CC(N)C12CC3CC(CC(C3)C1)C2` (centres unmarked) [Rimantadine, reference compound], in series [3], the IC50 worked out at 57 ± 8 µM. In “in vitro”, this compound yielded a CC50 of 367 ± 28 µM.

For the origin of these results see paper PMC9416111, “Synthesis and Biological Activity of Unsymmetrical Monoterpenylhetaryl Disulfides” (Molecules, 2022).
